Experimental data taken from PubChem BioAssay (NCI).
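The concentration for 50% growth inhibition is given as GI50. TGI marks complete inhibition of growth.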

How the values were obtained:
Test in all cases: NCI anticancer screen, dose series, 384-well format
MCF7 breast = tested on: MCF7 breast
U251 glioblastoma = tested on: U251 glioblastoma
SF-295 CNS = tested on: SF-295 CNS
SK-MEL-28 melanoma = tested on: SK-MEL-28 melanoma
NCI/ADR-RES ovarian = tested on: NCI/ADR-RES ovarian
HCT-116 colon = tested on: HCT-116 colon
KM12 colon = tested on: KM12 colon
HOP-92 NSCLC = tested on: HOP-92 NSCLC
OVCAR-8 ovarian = tested on: OVCAR-8 ovarian
SNB-19 CNS = tested on: SNB-19 CNS
LOX IMVI melanoma = tested on: LOX IMVI melanoma
CCRF-CEM leukemia = tested on: CCRF-CEM leukemia
BT-549 breast = tested on: BT-549 breast
NCI-H226 lung = tested on: NCI-H226 lung
UO-31 renal = tested on: UO-31 renal
SK-OV-3 ovarian = tested on: SK-OV-3 ovarian
COLO 205 colon = tested on: COLO 205 colon
HOP-62 NSCLC = tested on: HOP-62 NSCLC
SF-268 CNS = tested on: SF-268 CNS
SN12C renal = tested on: SN12C renal
T-47D breast = tested on: T-47D breast
ACHN renal = tested on: ACHN renal
NCI-H23 lung = tested on: NCI-H23 lung
M14 melanoma = tested on: M14 melanoma
MDA-MB-468 breast = tested on: MDA-MB-468 breast
UACC-62 melanoma = tested on: UACC-62 melanoma
SK-MEL-2 melanoma = tested on: SK-MEL-2 melanoma
HT29 colon = tested on: HT29 colon
MDA-MB-231 breast = tested on: MDA-MB-231 breast
NCI-H522 lung = tested on: NCI-H522 lung
RXF 393 renal = tested on: RXF 393 renal
A549 NSCLC = tested on: A549 NSCLC
MDA-MB-435 melanoma = tested on: MDA-MB-435 melanoma
786-0 renal = tested on: 786-0 renal
MALME-3M melanoma = tested on: MALME-3M melanoma
SR leukemia = tested on: SR leukemia
OVCAR-5 ovarian = tested on: OVCAR-5 ovarian
TK-10 renal = tested on: TK-10 renal
K-562 leukemia = tested on: K-562 leukemia
HCT-15 colon = tested on: HCT-15 colon
CAKI-1 renal = tested on: CAKI-1 renal
A498 renal = tested on: A498 renal
OVCAR-3 ovarian = tested on: OVCAR-3 ovarian
HCC-2998 colon = tested on: HCC-2998 colon
OVCAR-4 ovarian = tested on: OVCAR-4 ovarian
MOLT-4 leukemia = tested on: MOLT-4 leukemia
SK-MEL-5 melanoma = tested on: SK-MEL-5 melanoma
HL-60(TB) leukemia = tested on: HL-60(TB) leukemia
DU-145 prostate = tested on: DU-145 prostate
PC-3 prostate = tested on: PC-3 prostate
IGROV1 ovarian = tested on: IGROV1 ovarian
UACC-257 melanoma = tested on: UACC-257 melanoma
SF-539 CNS = tested on: SF-539 CNS
NCI-H460 NSCLC = tested on: NCI-H460 NSCLC
SW-620 colon = tested on: SW-620 colon
NCI-H322M lung = tested on: NCI-H322M lung

Q: Which results are given for `N[C@@H](CSSC[C@H](N)C(=O)N1CCn2cc(-c3ccccc3)nc2[C@@H]1CC1CCCCC1)C(=O)N1CCn2cc(-c3ccccc3)nc2[C@@H]1CC1CCCCC1`?
A: GI50 (MCF7 breast): 1.46 µM; TGI (MCF7 breast): 2.79 µM; GI50 (U251 glioblastoma): 0.571 µM; TGI (U251 glioblastoma): 1.89 µM; GI50 (SF-295 CNS): 1.94 µM; TGI (SF-295 CNS): 3.36 µM; GI50 (SK-MEL-28 melanoma): 0.146 µM; TGI (SK-MEL-28 melanoma): 1.03 µM; GI50 (NCI/ADR-RES ovarian): 2.35 µM; TGI (NCI/ADR-RES ovarian): 5.41 µM; GI50 (HCT-116 colon): 0.215 µM; TGI (HCT-116 colon): 0.49 µM; GI50 (KM12 colon): 0.312 µM; TGI (KM12 colon): 1.55 µM; GI50 (HOP-92 NSCLC): 1.98 µM; TGI (HOP-92 NSCLC): 3.44 µM; GI50 (OVCAR-8 ovarian): 1.62 µM; TGI (OVCAR-8 ovarian): 2.98 µM; GI50 (SNB-19 CNS): 0.586 µM; TGI (SNB-19 CNS): 1.87 µM; GI50 (LOX IMVI melanoma): 1.33 µM; TGI (LOX IMVI melanoma): 2.62 µM; GI50 (CCRF-CEM leukemia): 0.294 µM; TGI (CCRF-CEM leukemia): 1.27 µM; GI50 (BT-549 breast): 1.84 µM; TGI (BT-549 breast): 3.25 µM; GI50 (NCI-H226 lung): 1.82 µM; TGI (NCI-H226 lung): 3.26 µM; GI50 (UO-31 renal): 2.07 µM; TGI (UO-31 renal): 3.96 µM; GI50 (SK-OV-3 ovarian): 0.242 µM; TGI (SK-OV-3 ovarian): 1.8 µM; GI50 (COLO 205 colon): 1.39 µM; TGI (COLO 205 colon): 2.7 µM; GI50 (HOP-62 NSCLC): 1.25 µM; TGI (HOP-62 NSCLC): 2.53 µM; GI50 (SF-268 CNS): 0.283 µM; TGI (SF-268 CNS): 1.16 µM; GI50 (SN12C renal): 1.56 µM; TGI (SN12C renal): 2.91 µM; GI50 (T-47D breast): 0.155 µM; TGI (T-47D breast): 0.55 µM; GI50 (ACHN renal): 1.95 µM; TGI (ACHN renal): 3.39 µM; GI50 (NCI-H23 lung): 2.12 µM; TGI (NCI-H23 lung): 4.21 µM; GI50 (M14 melanoma): 0.146 µM; TGI (M14 melanoma): 0.355 µM; GI50 (MDA-MB-468 breast): 1.08 µM; TGI (MDA-MB-468 breast): 2.28 µM; GI50 (UACC-62 melanoma): 0.176 µM; TGI (UACC-62 melanoma): 0.349 µM; GI50 (SK-MEL-2 melanoma): 0.184 µM; TGI (SK-MEL-2 melanoma): 0.524 µM; GI50 (HT29 colon): 1.47 µM; TGI (HT29 colon): 2.84 µM; GI50 (MDA-MB-231 breast): 1.63 µM; TGI (MDA-MB-231 breast): 2.99 µM; GI50 (NCI-H522 lung): 1.61 µM; TGI (NCI-H522 lung): 2.97 µM; TGI (RXF 393 renal): 1.09 µM; GI50 (A549 NSCLC): 1.26 µM; TGI (A549 NSCLC): 2.53 µM; GI50 (MDA-MB-435 melanoma): 0.677 µM; TGI (MDA-MB-435 melanoma): 1.93 µM; GI50 ([…]-0 renal): 1.51 µM; TGI (786-0 renal): 2.93 µM; GI50 (MALME-3M melanoma): 1.14 µM; TGI (MALME-3M melanoma): 2.36 µM; GI50 (SR leukemia): 0.22 µM; TGI (SR leukemia): 0.627 µM; GI50 (OVCAR-5 ovarian): 1.71 µM; TGI (OVCAR-5 ovarian): 3.15 µM; GI50 (TK-10 renal): 1.75 µM; TGI (TK-10 renal): 3.15 µM; GI50 (K-562 leukemia): 0.551 µM; TGI (K-562 leukemia): 1.74 µM; GI50 (HCT-15 colon): 1.58 µM; TGI (HCT-15 colon): 2.93 µM; GI50 (CAKI-1 renal): 1.93 µM; TGI (CAKI-1 renal): 3.56 µM; GI50 (A498 renal): 1.63 µM; TGI (A498 renal): 3 µM; GI50 (OVCAR-3 ovarian): 1.1 µM; TGI (OVCAR-3 ovarian): 2.31 µM; GI50 (HCC-2998 colon): 1.7 µM; TGI (HCC-2998 colon): 3.08 µM; GI50 (OVCAR-4 ovarian): 1.94 µM; TGI (OVCAR-4 ovarian): 3.38 µM; GI50 (MOLT-4 leukemia): 0.14 µM; TGI (MOLT-4 leukemia): 0.271 µM; GI50 (SK-MEL-5 melanoma): 0.194 µM; TGI (SK-MEL-5 melanoma): 1.3 µM; GI50 (HL-60(TB) leukemia): 0.796 µM; TGI (HL-60(TB) leukemia): 1.99 µM; GI50 (DU-145 prostate): 1.85 µM; TGI (DU-145 prostate): 6.34 µM; GI50 (PC-3 prostate): 1.83 µM; TGI (PC-3 prostate): 3.26 µM; GI50 (IGROV1 ovarian): 1.6 µM; TGI (IGROV1 ovarian): 3.31 µM; GI50 (UACC-257 melanoma): 0.257 µM; TGI (UACC-257 melanoma): 0.702 µM; GI50 (SF-539 CNS): 1.72 µM; TGI (SF-539 CNS): 3.1 µM; GI50 (NCI-H460 NSCLC): 0.288 µM; TGI (NCI-H460 NSCLC): 1.59 µM; GI50 (SW-620 colon): 1.02 µM; TGI (SW-620 colon): 2.2 µM; GI50 (NCI-H322M lung): 2.47 µM; TGI (NCI-H322M lung): 5.64 µM
